Results published in US20210023012A1, “Solid Pharmaceutical Compositions for Treating HCV” (AbbVie Inc., priority 2019, published 2021).

Experiments:
Assay type in all cases: in vitro ADME
P-gp = P-gp (Homo sapiens, UniProt P08183); assay: Substrate of transporter P-gp
OATP1B1/3 = assay: Substrate of transporter OATP1B1/3
BCRP = target: T1, BCRP (Homo sapiens, UniProt Q9UNQ0); assay: Substrate of transporter BCRP
T1 sequence (Q9UNQ0 1-655): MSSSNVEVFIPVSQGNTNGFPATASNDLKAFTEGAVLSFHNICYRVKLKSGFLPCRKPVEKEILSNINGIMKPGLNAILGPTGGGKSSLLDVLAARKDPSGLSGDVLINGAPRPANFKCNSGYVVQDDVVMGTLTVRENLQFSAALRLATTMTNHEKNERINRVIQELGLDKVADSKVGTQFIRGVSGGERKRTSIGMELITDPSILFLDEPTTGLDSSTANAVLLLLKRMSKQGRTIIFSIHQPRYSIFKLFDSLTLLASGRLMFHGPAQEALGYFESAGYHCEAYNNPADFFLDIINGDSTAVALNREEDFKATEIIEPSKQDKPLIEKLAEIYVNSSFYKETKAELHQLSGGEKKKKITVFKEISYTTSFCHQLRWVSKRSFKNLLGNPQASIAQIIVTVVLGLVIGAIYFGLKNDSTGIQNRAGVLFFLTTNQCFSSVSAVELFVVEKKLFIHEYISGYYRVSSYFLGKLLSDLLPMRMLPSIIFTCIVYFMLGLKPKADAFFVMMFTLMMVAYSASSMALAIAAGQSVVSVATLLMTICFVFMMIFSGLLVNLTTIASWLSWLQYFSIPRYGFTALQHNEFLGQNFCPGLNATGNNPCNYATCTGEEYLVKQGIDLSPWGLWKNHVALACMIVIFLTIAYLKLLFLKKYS

Sequence of P-gp (P08183 whole entry): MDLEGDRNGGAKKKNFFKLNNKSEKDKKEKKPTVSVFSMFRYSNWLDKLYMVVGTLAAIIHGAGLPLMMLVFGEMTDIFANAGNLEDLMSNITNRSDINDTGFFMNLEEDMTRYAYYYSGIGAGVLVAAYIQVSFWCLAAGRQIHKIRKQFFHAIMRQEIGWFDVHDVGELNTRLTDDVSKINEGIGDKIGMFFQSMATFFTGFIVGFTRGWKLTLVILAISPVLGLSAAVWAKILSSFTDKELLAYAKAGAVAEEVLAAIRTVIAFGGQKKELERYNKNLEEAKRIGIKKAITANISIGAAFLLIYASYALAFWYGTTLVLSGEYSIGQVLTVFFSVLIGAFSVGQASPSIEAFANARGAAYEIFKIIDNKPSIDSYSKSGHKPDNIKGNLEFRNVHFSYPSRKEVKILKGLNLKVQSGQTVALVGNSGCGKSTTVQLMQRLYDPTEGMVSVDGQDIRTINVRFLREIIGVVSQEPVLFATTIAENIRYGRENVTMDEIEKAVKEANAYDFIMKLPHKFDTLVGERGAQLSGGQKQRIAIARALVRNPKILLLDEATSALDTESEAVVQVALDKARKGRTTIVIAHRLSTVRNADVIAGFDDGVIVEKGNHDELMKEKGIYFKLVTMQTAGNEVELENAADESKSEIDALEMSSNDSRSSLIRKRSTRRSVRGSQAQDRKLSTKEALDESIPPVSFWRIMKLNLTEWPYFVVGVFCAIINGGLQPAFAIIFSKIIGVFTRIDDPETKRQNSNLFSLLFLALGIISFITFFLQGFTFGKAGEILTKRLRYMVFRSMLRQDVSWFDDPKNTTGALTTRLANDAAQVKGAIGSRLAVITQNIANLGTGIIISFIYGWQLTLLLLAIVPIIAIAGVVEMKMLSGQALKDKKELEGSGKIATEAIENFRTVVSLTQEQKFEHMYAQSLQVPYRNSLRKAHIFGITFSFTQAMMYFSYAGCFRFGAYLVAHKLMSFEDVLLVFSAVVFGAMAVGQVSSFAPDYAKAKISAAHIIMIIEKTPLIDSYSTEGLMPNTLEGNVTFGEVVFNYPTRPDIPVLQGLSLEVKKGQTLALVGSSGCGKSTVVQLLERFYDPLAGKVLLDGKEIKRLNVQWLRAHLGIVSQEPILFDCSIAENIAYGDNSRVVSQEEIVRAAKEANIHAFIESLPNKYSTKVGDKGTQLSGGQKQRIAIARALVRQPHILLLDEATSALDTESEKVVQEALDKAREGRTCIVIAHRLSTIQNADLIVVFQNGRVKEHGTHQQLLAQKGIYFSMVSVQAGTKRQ

Row | Substrate of transporter (P-gp) | Substrate of transporter (OATP1B1/3) | Substrate of transporter (BCRP) | SMILES
1 | P-gp, | OATP1B1/3 | – | CC(C)(C)[C@@H]1NC(=O)O[C@@H]2CCC[C@H]2OC/C=C/C(F)(F)c2nc3ccccc3nc2O[C@@H]2C[C@@H](C(=O)N[C@]3(C(=O)NS(=O)(=O)C4(C)CC4)C[C@H]3C(F)F)N(C2)C1=O [Compound 1]
2 | – | – | not excluded | COC(=O)N[C@H](C(=O)N1CCC[C@H]1c1nc2cc([C@H]3CC[C@H](c4cc5nc([C@@H]6CCCN6C(=O)[C@@H](NC(=O)OC)[C@@H](C)OC)[nH]c5cc4F)N3c3cc(F)c(N4CCC(c5ccc(F)cc5)CC4)c(F)c3)c(F)cc2[nH]1)[C@@H](C)OC [Compound 2]
